Key:
Plasma Kallikrein = Plasma Kallikrein (Homo sapiens (Human), UniProt P03952); test: Determination of related protease inhibition: Plasma Kallikrein (fluorogenic substrate at Km); type: biochemical; details: 25° C., read-out: IC50 (human PKal)
Procedure, shortened: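 Fluorogenic kinetic assay: human enzyme, substrate at Km, titrated inhibitor; 5 min read at 25 °C; IC50 from % of uninhibited rate.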

Human Factor XIIa = Human Factor XIIa (Homo sapiens (Human), UniProt P00748); test: Determination of FXIIa inhibition (fluorogenic substrate H-DPro-Phe-Arg-AFC, IC50 assay); type: biochemical; details: substrate H-DPro-Phe-Arg-AFC at Km, 25° C.; class scale A-G
Procedure, shortened: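 IC50 derived from % remaining activity, taken as the linear fluorescence rate over a 5 min read at 25° C. Substrate H-DPro-Phe-Arg-AFC was used at its Km (Michaelis-Menten) with human FXIIa and serial compound dilutions, 25° C.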

Chain of Human Factor XIIa (P00748 373-615): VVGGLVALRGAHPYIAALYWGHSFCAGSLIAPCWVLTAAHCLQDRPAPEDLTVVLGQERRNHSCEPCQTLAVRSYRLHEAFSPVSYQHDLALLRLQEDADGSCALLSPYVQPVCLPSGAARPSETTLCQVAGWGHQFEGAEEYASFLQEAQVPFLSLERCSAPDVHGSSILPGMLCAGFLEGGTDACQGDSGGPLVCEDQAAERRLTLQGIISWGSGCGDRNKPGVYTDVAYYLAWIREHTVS
Chain of Plasma Kallikrein (P03952 391-638): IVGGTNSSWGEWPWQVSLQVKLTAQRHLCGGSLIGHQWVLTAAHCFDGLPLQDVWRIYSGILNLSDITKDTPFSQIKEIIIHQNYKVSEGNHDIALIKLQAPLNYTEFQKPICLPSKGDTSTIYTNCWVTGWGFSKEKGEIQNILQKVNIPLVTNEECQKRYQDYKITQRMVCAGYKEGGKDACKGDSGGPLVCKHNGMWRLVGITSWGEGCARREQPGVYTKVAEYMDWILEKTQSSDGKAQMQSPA
Chain of Plasma Kallikrein (P03952 20-390 partner): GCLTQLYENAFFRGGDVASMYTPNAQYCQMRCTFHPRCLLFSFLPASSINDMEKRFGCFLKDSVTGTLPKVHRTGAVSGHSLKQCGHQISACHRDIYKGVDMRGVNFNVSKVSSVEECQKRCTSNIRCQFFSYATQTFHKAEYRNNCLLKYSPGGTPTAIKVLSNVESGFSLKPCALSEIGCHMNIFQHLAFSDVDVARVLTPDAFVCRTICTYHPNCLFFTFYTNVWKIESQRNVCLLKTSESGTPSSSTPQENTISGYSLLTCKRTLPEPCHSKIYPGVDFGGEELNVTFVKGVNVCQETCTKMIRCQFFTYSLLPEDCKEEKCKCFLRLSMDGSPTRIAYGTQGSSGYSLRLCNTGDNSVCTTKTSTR

SMILES | IC50 (Plasma Kallikrein) [µM] | IC50 (Human Factor XIIa) [µM]
CNc1cc(NCc2ccc(NCC3CCN(C)CC3)nc2)ccn1 [Example 1219, N2-Methyl-N4-((6-(((1-methylpiperidin-4-yl)methyl)amino)pyridin-3-yl)methyl)pyridine-2,4-diamine] | > 100 | 3 to 10
Cc1c[nH]c2nccc(NCc3ccc(NCC4CCN(C)CC4)nc3)c12 [Example 1226, 3-methyl-N-((6-(((1-methylpiperidin-4-yl)methyl)amino)pyridin-3-yl)methyl)-1H-pyrrolo[2,3-b]pyridin-4-amine] | > 100 | 3 to 10
Cc1cc2c(NCc3ccc(OCC4CCN(C)CC4)nc3)ccnc2[nH]1 [Example 1249, 2-methyl-N-((6-((1-methylpiperidin-4-yl)methoxy)pyridin-3-yl)methyl)-1H-pyrrolo[2,3-b]pyridin-4-amine] | > 40 | 0.3 to 1
CN1CCC(CNc2ccc(CNc3ccnc4[nH]c(C(N)=O)cc34)cn2)CC1 [Example 1252, 4-(((6-(((1-methylpiperidin-4-yl)methyl)amino)pyridin-3-yl)methyl)amino)-1H-pyrrolo[2,3-b]pyridine-2-carboxamide] | > 40 | 10 to 40
Cc1cc2c(NCc3ccc(NCC4CCN(C)CC4)nc3)ncnc2[nH]1 [Example 1254, 6-methyl-N-((6-(((1-methylpiperidin-4-yl)methyl)amino)pyridin-3-yl)methyl)-7H-pyrrolo[2,3-d]pyrimidin-4-amine] | > 40 | 10 to 40
Cc1cnc2[nH]c(Cl)cc2c1NCc1ccc(NCC2CCN(C)CC2)nc1 [Example 1255, 2-chloro-5-methyl-N-((6-(((1-methylpiperidin-4-yl)methyl)amino)pyridin-3-yl)methyl)-1H-pyrrolo[2,3-b]pyridin-4-amine] | > 40 | 3 to 10
CN1CCC(CNc2ccc(CNc3cc(C#N)cc4[nH]ccc34)cn2)CC1 [Example 1256] | > 40 | 10 to 40
CN1CCC(CNc2ccc(CNc3ccncc3)cn2)CC1 [Example 1258, N-((1-methylpiperidin-4-yl)methyl)-5-((pyridin-4-ylamino)methyl)pyridin-2-amine] | > 40 | 10 to 40
CN1CCC(CNc2ccc(CNc3cc(C(=O)O)nc4[nH]ccc34)cn2)CC1 [Example 1263, 4-(((6-(((1-methylpiperidin-4-yl)methyl)amino)pyridin-3-yl)methyl)amino)-1H-pyrrolo [2,3-b]pyridine-6-carboxylic acid] | > 40 | 10 to 40
Nc1nccc2c(NCc3ccc(N4CCC(CC(F)F)C4)nc3)cccc12 (stereo not drawn) [Example 1265, N5-((6-(3-(2,2-difluoroethyl)pyrrolidin-1-yl)pyridin-3-yl)methyl)isoquinoline-1,5-diamine] | > 40 | 3 to 10
Nc1ncc(Cl)c2cc(NCc3ccc(N4CCC(CC(F)F)C4)nc3)ccc12 (stereo not drawn) [Example 1266, 4-chloro-N6-((6-(3-(2,2-difluoroethyl)pyrrolidin-1-yl)pyridin-3-yl)methyl)isoquinoline-1,6-diamine] | > 40 | 10 to 40
Nc1ncc(Cl)c2cc(NCc3ccc(N4CCn5ncc(O)c5C4)nc3)ccc12 [Example 1267, 5-(5-(((1-amino-4-chloroisoquinolin-6-yl)amino)methyl)pyridin-2-yl)-4,5,6,7-tetrahydropyrazolo[1,5-a]pyrazin-3-ol] | > 40 | 3 to 10
Nc1nccc2c(NCc3ccc(N4CCn5nccc5C4CO)nc3)cccc12 (stereo not drawn) [Example 1268, (5-(5-(((1-aminoisoquinolin-5-yl)amino)methyl)pyridin-2-yl)-4,5,6,7-tetrahydropyrazolo[1,5-a]pyrazin-4-yl)methanol] | > 40 | 3 to 10
Nc1nccc2c(NCc3ccc(N4CCn5ncc(CO)c5C4)nc3)cccc12 [Example 1269, (5-(5-(((1-aminoisoquinolin-5-yl)amino)methyl)pyridin-2-yl)-4,5,6,7-tetrahydropyrazolo[1,5-a]pyrazin-3-yl)methanol] | > 40 | 10 to 40
Nc1ncc(Cl)c2cc(NCc3ccc(N4CC5(CC(O)c6nccn65)C4)nc3)ccc12 (stereo not drawn) [Example 1270, 1-(5-(((1-amino-4-chloroisoquinolin-6-yl)amino)methyl)pyridin-2-yl)-6′,7′-dihydrospiro[azetidine-3,5′-pyrrolo[1,2-a]imidazol]-7′-ol] | > 40 | 10 to 40

Next, values leading:

IC50 (Plasma Kallikrein) [µM] | IC50 (Human Factor XIIa) [µM] | SMILES
> 40 | 40 to 100 | COc1ccc2c(NCc3ccc(NCC4CCN(C)CC4)nc3)ccnc2c1 [Example 1217, 7-methoxy-N-((6-(((1-methylpiperidin-4-yl)methyl)amino)pyridin-3-yl)methyl)quinolin-4-amine]
> 40 | 40 to 100 | CN1CCC(CNc2ccc(CNc3nccc4[nH]ccc34)cn2)CC1 [Example 1223, N-((6-(((1-methylpiperidin-4-yl)methyl)amino)pyridin-3-yl)methyl)-1H-pyrrolo[3,2-c]pyridin-4-amine]
10 to 40 | 0.3 to 1 | Cc1cc2c(NCc3ccc(NCC4CCN(C)CC4)nc3)cncc2[nH]1 [Example 1232, 2-Methyl-N-((6-(((1-methylpiperidin-4-yl)methyl)amino)pyridin-3-yl)methyl)-1H-pyrrolo[2,3-c]pyridin-4-amine]
3 to 10 | 3 to 10 | CN1CCC(CNc2ccc(CNc3cc(F)c4c(N)nccc4c3)cn2)CC1 [Example 1245, 8-fluoro-N6-((6-(((1-methylpiperidin-4-yl)methyl)amino)pyridin-3-yl)methyl)isoquinoline-1,6-diamine]
> 40 | 3 to 10 | Cc1cc(NCc2ccc(NCC3CCN(C)CC3)nc2)c2cc[nH]c2n1 [Example 1246, 6-methyl-N-((6-(((1-methylpiperidin-4-yl)methyl)amino)pyridin-3-yl)methyl)-1H-pyrrolo[2,3-b]pyridin-4-amine]
> 20 | 10 to 40 | COC(=O)c1c[nH]c2nccc(NCc3ccc(NCC4CCN(C)CC4)nc3)c12 [Example 1248, methyl 4-(((6-(((1-methylpiperidin-4-yl)methyl)amino)pyridin-3-yl)methyl)amino)-1H-pyrrolo[2,3-b]pyridine-3-carboxylate]
3 to 10 | 1 to 3 | CN1CCC(CNc2ccc(CNc3cc(C(F)(F)F)cc4[nH]c(Cl)cc34)cn2)CC1 [Example 1262, 2-chloro-N-((6-(((1-methylpiperidin-4-yl)methyl)amino)pyridin-3-yl)methyl)-6-(trifluoromethyl)-1H-indol-4-amine]
10 to 40 | 0.3 to 1 | Nc1nccc2c(NCc3ccc(N4CCc5nccn5CC4)nc3)cccc12 [Example 1271, N5-((6-(5,6,8,9-tetrahydro-7H-imidazo[1,2-d][1,4]diazepin-7-yl)pyridin-3-yl)methyl)isoquinoline-1,5-diamine]
10 to 40 | 1 to 3 | Nc1ncc(Cl)c2cc(NCc3ccc(N4CCc5nccn5CC4)nc3)ccc12 [Example 1272, 4-chloro-N6-((6-(5,6,8,9-tetrahydro-7H-imidazo[1,2-d][1,4]diazepin-7-yl)pyridin-3-yl)methyl)isoquinoline-1,6-diamine]
